Measured values taken from PubChem BioAssay AID330 (DTP/NCI, 2004).
Where “and” joins values, the source holds several entries; their conditions need not be identical. Equal entries are not always repeated. Toxic doses and inconclusive results are not listed. How the source made its calls: active means survival T/C of 150% or more; inactive means T/C below 125% in these data.

Tested on: P388 leukemia ip, CD2F1 mice, survival T/C
Assay: NCI In Vivo Anticancer Drug Screen. Data for tumor model P388 Leukemia (intraperitoneal) in CD2F1 (CDF1) mice
Conditions: endpoint: median survival time, higher = longer survival
Outline: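 Mice carrying the transplanted tumor received test compound or vehicle. Survival was recorded in each group, and the value is the treated-group measurement divided by that of the vehicle-treated control group.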

[1] = dose: 50.0 mg/kg/injection, schedule: Q01DX009 (ip), vehicle: saline with Tween-80
[2] = dose: 100.0 mg/kg/injection, schedule: Q01DX009 (ip), vehicle: saline with Tween-80
[3] = dose: 200.0 mg/kg/injection, schedule: Q01DX009 (ip), vehicle: saline with Tween-80
[4] = dose: 60.0 mg/kg/injection, schedule: Q01DX005 (ip), vehicle: saline with Tween-80
[5] = dose: 120.0 mg/kg/injection, schedule: Q01DX005 (ip), vehicle: saline with Tween-80
[6] = dose: 50.0 mg/kg/injection, schedule: Q01DX005 (ip), vehicle: Klucel (hydroxypropylcellulose) (HPC)
[7] = dose: 100.0 mg/kg/injection, schedule: Q01DX005 (ip), vehicle: Klucel (hydroxypropylcellulose) (HPC)
[8] = dose: 200.0 mg/kg/injection, schedule: Q01DX005 (ip), vehicle: Klucel (hydroxypropylcellulose) (HPC)
[9] = dose: 240.0 mg/kg/injection, schedule: Q01DX005 (ip), vehicle: saline with Tween-80
[10] = dose: 6.25 mg/kg/injection, schedule: Q04DX002 (ip), vehicle: saline with Tween-80
[11] = dose: 50.0 mg/kg/injection, schedule: Q04DX003 (ip), vehicle: saline
[12] = dose: 100.0 mg/kg/injection, schedule: Q04DX003 (ip), vehicle: saline
[13] = dose: 200.0 mg/kg/injection, schedule: Q04DX003 (ip), vehicle: saline
[14] = dose: 50.0 mg/kg/injection, schedule: Q01DX009 (ip), vehicle: saline
[15] = dose: 100.0 mg/kg/injection, schedule: Q01DX009 (ip), vehicle: saline
[16] = dose: 200.0 mg/kg/injection, schedule: Q01DX009 (ip), vehicle: saline

Measured: T/C

O=C1CCCCC12CCCC2
inactive: dose: 87.5 mg/kg/injection, schedule: Q01DX001 (ip), vehicle: saline sonified 100 % of control | dose: 175.0 mg/kg/injection, schedule: Q01DX001 (ip), vehicle: saline sonified 100 % of control | dose: 250.0 mg/kg/injection, schedule: Q01DX001 (ip), vehicle: saline sonified 105 % of control

CCn1c2ccccc2c2cc(N/C=C/C3=[N+](C)c4ccccc4C3(C)C)ccc21
inactive: dose: 1.56 mg/kg/injection, schedule: Q01DX009 (ip), vehicle: Klucel (hydroxypropylcellulose) (HPC) 107 % of control and 111 % of control | dose: 3.12 mg/kg/injection, schedule: Q01DX009 (ip), vehicle: Klucel (hydroxypropylcellulose) (HPC) 100 % of control and 114 % of control | dose: 6.25 mg/kg/injection, schedule: Q01DX009 (ip), vehicle: Klucel (hydroxypropylcellulose) (HPC) 116 % of control (2×) and 123 % of control | dose: 12.5 mg/kg/injection, schedule: Q01DX009 (ip), vehicle: Klucel (hydroxypropylcellulose) (HPC) 109 % of control | dose: 25.0 mg/kg/injection, schedule: Q01DX009 (ip), vehicle: Klucel (hydroxypropylcellulose) (HPC) 96 % of control

CCOC(=O)c1cc(NC(C)=O)cn1C
inactive: [1] 102 % of control | [2] 104 % of control | [3] 103 % of control

CN(C)/N=C1/CCCCC1C(O)(c1ccccc1)c1ccccc1 (configuration not stated)
inactive: [4] 97 % of control

COC(=O)Nc1nc2ccc(CCC(=O)c3c(C)oc(C)c3-c3ccc(NC(C)=O)cc3)cc2[nH]1
inactive: [4] 99 % of control | [5] 99 % of control

Cc1ccc(N=Nc2c(O)ccc3n[nH]nc23)cc1
inactive: dose: 50.0 mg/kg/injection, schedule: Q01DX009 (ip), vehicle: Klucel (hydroxypropylcellulose) (HPC) 99 % of control | dose: 100.0 mg/kg/injection, schedule: Q01DX009 (ip), vehicle: Klucel (hydroxypropylcellulose) (HPC) 101 % of control and 105 % of control | dose: 100.0 mg/kg/injection, schedule: Q04DX003 (ip), vehicle: Klucel (hydroxypropylcellulose) (HPC) 100 % of control | dose: 200.0 mg/kg/injection, schedule: Q01DX009 (ip), vehicle: Klucel (hydroxypropylcellulose) (HPC) 99 % of control and 109 % of control | dose: 200.0 mg/kg/injection, schedule: Q04DX003 (ip), vehicle: Klucel (hydroxypropylcellulose) (HPC) 100 % of control | dose: 400.0 mg/kg/injection, schedule: Q01DX009 (ip), vehicle: Klucel (hydroxypropylcellulose) (HPC) 100 % of control and 109 % of control | dose: 400.0 mg/kg/injection, schedule: Q04DX003 (ip), vehicle: Klucel (hydroxypropylcellulose) (HPC) 93 % of control

CC1(C)CC(N)=CC(=S)N1
inactive: dose: 12.5 mg/kg/injection, schedule: Q01DX009 (ip), vehicle: saline with Tween-80 92 % of control | dose: 25.0 mg/kg/injection, schedule: Q01DX009 (ip), vehicle: saline with Tween-80 97 % of control | [1] 101 % of control

O=C(CCCN1CCC(O)(c2cccc(C(F)(F)F)c2)CC1)c1ccc(F)cc1
inactive: dose: 18.75 mg/kg/injection, schedule: Q04DX003 (ip), vehicle: Klucel (hydroxypropylcellulose) (HPC) 108 % of control | dose: 37.5 mg/kg/injection, schedule: Q04DX003 (ip), vehicle: Klucel (hydroxypropylcellulose) (HPC) 112 % of control | dose: 75.0 mg/kg/injection, schedule: Q04DX003 (ip), vehicle: Klucel (hydroxypropylcellulose) (HPC) 88 % of control

Cc1cc(N=Cc2c(CO)cnc(C)c2O)c(N=Cc2c(CO)cnc(C)c2O)cc1C
inactive: [6] 98 % of control | [4] 93 % of control | [7] 96 % of control | [5] 104 % of control | [8] 91 % of control | [9] 94 % of control

CN1C(=O)CN(CN2CCOCC2)C1=O
inactive: [6] 106 % of control | [7] 115 % of control | [8] 117 % of control

C/C=C/C=C\C(=O)O
inactive: dose: 6.25 mg/kg/injection, schedule: Q01DX009 (ip), vehicle: saline 102 % of control | dose: 12.5 mg/kg/injection, schedule: Q01DX009 (ip), vehicle: saline 93 % of control | dose: 25.0 mg/kg/injection, schedule: Q01DX009 (ip), vehicle: saline 93 % of control | [3] 104 % of control

CN=C(N)N/N=C(\c1ccccc1)c1ccc(Br)cc1
inactive: dose: 3.12 mg/kg/injection, schedule: Q04DX002 (ip), vehicle: saline with Tween-80 101 % of control | [10] 108 % of control and 96 % of control

N=C(N)c1ccc(OCCCOc2ccc(C(=N)N)cc2)cc1
inactive: dose: 6.25 mg/kg/injection, schedule: Q01DX005 (ip), vehicle: saline 108 % of control | dose: 12.5 mg/kg/injection, schedule: Q01DX005 (ip), vehicle: saline 117 % of control | dose: 25.0 mg/kg/injection, schedule: Q01DX005 (ip), vehicle: saline 115 % of control

CCN(CC)CCNC(c1ccc(OC)cc1)C(Cl)(Cl)Cl (configuration not stated)
inactive: dose: 60.0 mg/kg/injection, schedule: Q01DX005 (ip), vehicle: saline 94 % of control | dose: 120.0 mg/kg/injection, schedule: Q01DX005 (ip), vehicle: saline 94 % of control

CC(C)(C)c1cc2c(O)c(c1)Cc1cc(C(C)(C)C)cc(c1O)Cc1cc(C(C)(C)C)cc(c1O)Cc1cc(C(C)(C)C)cc(c1O)Cc1cc(C(C)(C)C)cc(c1O)Cc1cc(C(C)(C)C)cc(c1O)C2
inactive: [6] 99 % of control | [7] 92 % of control | [8] 92 % of control

ON=C1CCC(=NO)CC1
inactive: dose: 25.0 mg/kg/injection, schedule: Q04DX003 (ip), vehicle: saline 101 % of control | [11] 100 % of control | [12] 95 % of control | [13] 107 % of control | dose: 400.0 mg/kg/injection, schedule: Q04DX003 (ip), vehicle: saline 101 % of control

CN(C)c1ccc(C=Nc2ccc(OCCCCCCCCCCC(=O)O)cc2)cc1
inactive: [1] 93 % of control | [2] 88 % of control | [3] 90 % of control

NC(=S)N/N=C\c1nccc2ncccc12
inactive: [10] 113 % of control | dose: 12.5 mg/kg/injection, schedule: Q04DX002 (ip), vehicle: saline with Tween-80 124 % of control

Cc1ccc(NCCN(C)C)c2c(=O)c3ccc(O)cc3sc12
inactive: [1] 110 % of control | [2] 110 % of control

CCOC(=O)c1cc(N)c(N2CCCC2)cc1Cl
inactive: dose: 90.0 mg/kg/injection, schedule: Q04DX003 (ip), vehicle: saline with Tween-80 100 % of control | dose: 133.0 mg/kg/injection, schedule: Q04DX003 (ip), vehicle: saline with Tween-80 100 % of control | dose: 200.0 mg/kg/injection, schedule: Q04DX003 (ip), vehicle: saline with Tween-80 90 % of control | dose: 300.0 mg/kg/injection, schedule: Q04DX003 (ip), vehicle: saline with Tween-80 95 % of control

Cc1ccc(S(=O)(O)=S)cc1
inactive: [14] 101 % of control | [15] 107 % of control | dose: 100.0 mg/kg/injection, schedule: Q04DX002 (ip), vehicle: saline 105 % of control | [16] 115 % of control | dose: 200.0 mg/kg/injection, schedule: Q04DX002 (ip), vehicle: saline 101 % of control | dose: 400.0 mg/kg/injection, schedule: Q04DX002 (ip), vehicle: saline 102 % of control

CCN(CC)CCOCC(=O)Nc1c(C)cccc1Cl
inactive: [11] 102 % of control and 113 % of control and 96 % of control | [12] 100 % of control and 101 % of control and 120 % of control | [13] 88 % of control and 92 % of control and 95 % of control

COc1ccc(C(C#N)C(=O)C(=O)Nc2ccc(Cl)cc2C)cc1OC (configuration not stated)
inactive: [4] 100 % of control | [5] 100 % of control | [9] 105 % of control

OC(CO/N=C1/c2ccccc2CCC1Cc1ccccc1)CN1CCOCC1 (configuration not stated)
inactive: [4] 108 % of control | [5] 116 % of control | [9] 114 % of control

CSCC(N)CO (configuration not stated)
inactive: [14] 110 % of control | [15] 105 % of control | [16] 101 % of control

O=C(NC(=NC(=NC1CCCCC1)c1ccccc1)c1ccccc1)c1ccccc1
inactive: [1] 99 % of control | [2] 92 % of control | [3] 89 % of control
